Source: patent publication US10294476B2, “NEAT1 as a prognostic marker and therapeutic target for prostate cancer” (CORNELL UNIVERSITY, priority 2014, dated 2019)

What was measured:
Assay type in all cases: cell-based
NEAT1 = NEAT1 expression (qRT-PCR) in treated prostate cancer cell lines; settings: for NEAT1 expression: VCaP cells
Method: Cell culture and treatments: LnCaP and PC3 cells were grown in RPMI 1640 (Invitrogen) and supplemented with 10% fetal bovine serum (FBS) and 1% penicillin-streptomycin. RWPE1 cells were grown in Keratinocyte Serum Free Medium (K-SFM), Kit (Gibco, #17005-042). VCaP and DU145 cells were grown in DMEM (Invitrogen) and supplemented with 10% fetal bovine serum (FBS) with 1% penicillin streptomycin. NCI-H660 cells were grown in RPMI 1640 supplemented with 0.005 mg/ml insulin, 0.01 mg/ml transferrin, 30 nM sodium selenite, 10 nM hydrocortisone, 10 nM β-estradiol, 5% FBS, 1% penicillin-streptomycin and an extra 2 mM of L-glutamine (for a final concentration of 4 mM). For cell treatments in several experiments, the inventors used 10-100 nM β-estradiol (Sigma Aldrich), 10 μM Enzalutamide (Astellas), 10 μM bicalutamide (Sigma Aldrich), 1-10 nM R1881 (PE Biosystems), 10-100 nM 4-hydroxy tamoxifen (4OHT) (Sigma Aldrich), 1-10 μM ICI […] (Tocris Bioscience).
RNA isolation, cDNA synthesis and PCR experiments: Total RNA was isolated from frozen prostate tissue samples (for qPCR) and cell lines (for transcriptome sequencing and qPCR) using Trizol (Invitrogen) with DNase I digestion according to manufacturer's instructions. RNA integrity was verified on an Agilent Bioanalyzer 2100 (Agilent Technologies). cDNA was synthesized from total RNA using Superscript III (Invitrogen) and random primers (Invitrogen). Quantitative RT-PCR was performed using Power SYBR Green Mastermix (Applied Biosystems) on an Applied Biosystems 7900 Fast Real Time PCR machine. All primers were designed using Primer 3 and synthesized by Integrated DNA Technologies.
To test this hypothesis in vitro, the inventors evaluated the effect of anti-estrogens and anti-androgens on NEAT1 levels in prostate cancer cell lines.

VCaP cells [1] = experiment: Cell invasion assay (CHEMICON kit); settings: E2 (10 nM), 48 hrs
Method: Invasion assay: The CHEMICON cell invasion assay kit (EMD MIlipore) was used for determining the cell invasion. Cells were serum-starved for 48 hours and then seeded at a density of 2×10^5 cells/well in the upper well of the invasion chamber. 500 μl of phenol res free DMEM media supplemented with 8% charcoal stripped serum and 10 nM E2 was added to the lower chamber. After 48-hour incubation, the invaded cells were stained by dipping the inserts in the staining solution for 20 minutes. The stained cells were then dissolved in 10% acetic acid and transferred to a 96-well plate for colorimetric reading of OD at 560 nm.

VCaP cells [2] = experiment: Colony-forming assay in NEAT1-overexpressing VCaP cells; settings: NEAT1-overexpressing VCaP cells with vs without E2 (10 nM), 21 days
Method: Soft agar assays were performed in both VCaP and VCaP NEAT1 cells. Colonies were monitored over a period of 21 days. […] These in vitro assays establish an oncogenic role for NEAT1.

NEAT1 promoter = NEAT1 promoter luciferase reporter assay; settings: VCaP cells with ERα expression, -/+ E2 (10 nM) 24 hr
Text: Luciferase reporter assays: For ERE luciferase assays, VCaP cells were transiently transfected with the (ERE)3-5V40-luc reporter plasmid and/or ERα and/or AR as well as an internal control construct pRL harboring the renilla luciferase gene. VCaP cells were also transfected with empty vector or NEAT1 promoter (1+2) luciferase reporter constructs alone or with ERα as well as an internal control construct pRL harboring renilla luciferase gene. In order to determine the PSMA reporter activity, 293T cells and PC3 cells were co transfected with empty vector or PSMA luc and Renilla-luc reporter genes alone or with NEAT1, NEAT1+ERα, or NEAT1+AR.
[…] At 48 h cells were lysed with passive lysis buffer and luciferase activities were measured using the dual luciferase system (#E1910, Promega) and normalized with renilla luciferase activity.
The inventors inspected our ERα ChIP-seq data in VCaP ERα and NCI-H660 cells and identified two ERα binding sites on the NEAT1 promoter (FIG. 2d). […] ERα recruitment to specific regions of the NEAT1 promoter was independently validated by ERα ChIP in VCaP, VCaP ERα and NCI-H660 cells (FIG. 2e) using specific primers encompassing ERα binding sites in the NEAT1 promoter. […]

[3] = ERα antagonist alone for longer periods
[4] = ERα antagonist in combination with E2 (10 nM)

4-hydroxy tamoxifen [4OHT]
NEAT1 expression (NEAT1; [3]): enhance NEAT1 expression
NEAT1 expression (NEAT1; [4]): constrained

C[C@]12CC[C@@H]3c4ccc(O)cc4C[C@@H](CCCCCCCCC[S+]([O-])CCCC(F)(F)C(F)(F)F)[C@H]3[C@@H]1CC[C@@H]2O (some centres unmarked) [ICI 182,720]
NEAT1 expression (NEAT1; [3]): enhance NEAT1 expression
NEAT1 expression (NEAT1; [4]): constrained

β-estradiol [E2]
invasive potential (VCaP cells [1]): ligand-dependent modulation of invasive potential
NEAT1 transcript levels (NEAT1; panel of prostate cancer cell lines, ERα overexpression and E2 treatment (10 nM), different time points): upregulated NEAT1 transcript levels in a time-dependent manner
number of colonies (VCaP cells [2]): significantly increased the number of colonies
NEAT1 promoter activity (NEAT1 promoter): further enhanced
